The text below walks through data of patent publication US6610304B1, “Liposomes containing multiple branch peptide constructions for use against human immunodeficiency virus” (priority 1997, dated 2003).

The nature of data set [1]: Toxicity, intravenous injection into mice. The conditions noted are these: 50 mg/kg of SPC3, immediately, after 12 or 24 hours. The format is in vivo. How it is done:
To determine toxicity, the 250 nm dialysed liposomes containing SPC3 were injected intravenously into 8 mice at a dose of 50 mg/kg of SPC3.

In the next data set the test system is HIV-1 Hx10clone. Description: Infection assay: inhibition of cell infection (cell-free p24 by ELISA). The format is cell-based. The following applies: C8166 cells, supernatant ELISA, no unit or concentration given. The method, then: C8166 cells were washed once in RPMI medium and then infected with HIV-1 Hx10clone by incubation at 37° C. for 2 hours in the presence of test substances (SPC3, SPC RL, empty liposomes of 110 nm and 250 nm average size, and dialysed and non-dialysed liposomes of those sizes containing SPC3) and in the absence of any test substance (control). After incubation, the virus was removed and the cells were incubated with fresh medium at 37° C. in the presence of the test substances or in the absence of any test substance (control). Infections and cell cultures were in 96-well culture plates. The production of HIV was monitored by measuring the concentration of cell-free p24 in the supernatant by ELISA, as described by Gluschankof et al., 1997, using the AMPAK amplification kit (DAKO. Trappes, France). The results are shown in Table 2 below, and the day 4 results are also shown graphically in the accompanying drawing.
Background: ELISA stands for enzyme-linked immunosorbent assay.

In the next data set the test system is HIV-1 Hx10 clone. Description: Fusion assay: inhibition of syncytium formation. The conditions noted are these: concentration 10^−6 M, C8166 cells. The data set is classed as cell-based. The method, then:
C8166 cells were incubated at 37° C. with HIV-1 Hx10 clone (B. Hahn, University of Alabama, USA) in the presence of test substances (SPC3, SPC RL, empty liposomes of 110 nm and 250 nm average size, and dialysed and non-dialysed liposomes of those sizes containing SPC3) and in the absence of any test substance (control). The samples were inspected by phase contrast microscopy and syncytia were scored after 48 and 72 hours of incubation in 96-well flat-bottomed cultured plates. Experiments were performed three times in duplicate and identical results were obtained. The presence of syncytia is indicated by + signs. allocated as follows: […]

Regarding `C[C@H](NC(=O)[C@H](CCCNC(=N)N)NC(=O)CNC(=O)[C@@H]1CCCN1C(=O)CN)C(=O)N[C@@H](Cc1ccccc1)C(=O)NCCCC[C@H](NC(=O)[C@H](Cc1ccccc1)NC(=O)[C@H](C)NC(=O)[C@H](CCCNC(=N)N)NC(=O)CNC(=O)[C@@H]1CCCN1C(=O)CN)C(=O)NCCCC[C@H](NC(=O)[C@H](CCCCNC(=O)[C@H](Cc1ccccc1)NC(=O)[C@H](C)NC(=O)[C@H](CCCNC(=N)N)NC(=O)CNC(=O)[C@@H]1CCCN1C(=O)CN)NC(=O)[C@H](Cc1ccccc1)NC(=O)[C@H](C)NC(=O)[C@H](CCCNC(=N)N)NC(=O)CNC(=O)[C@@H]1CCCN1C(=O)CN)C(=O)NCCCC[C@H](NC(=O)[C@H](CCCCNC(=O)[C@H](CCCCNC(=O)[C@H](Cc1ccccc1)NC(=O)[C@H](C)NC(=O)[C@H](CCCNC(=N)N)NC(=O)CNC(=O)[C@@H]1CCCN1C(=O)CN)NC(=O)[C@H](Cc1ccccc1)NC(=O)[C@H](C)NC(=O)[C@H](CCCNC(=N)N)NC(=O)CNC(=O)[C@@H]1CCCN1C(=O)CN)NC(=O)[C@H](CCCCNC(=O)[C@H](Cc1ccccc1)NC(=O)[C@H](C)NC(=O)[C@H](CCCNC(=N)N)NC(=O)CNC(=O)[C@@H]1CCCN1C(=O)CN)NC(=O)[C@H](Cc1ccccc1)NC(=O)[C@H](C)NC(=O)[C@H](CCCNC(=N)N)NC(=O)CNC(=O)[C@@H]1CCCN1C(=O)CN)C(=O)NCCC(=O)O` [SPC3, (GPGRAF)8-(K)4-(K)2-K-βA-OH], in data set [1], the symptoms of toxicity entry was “symptoms of toxicity were observed”.
As for (RQGYSPL)8-(K)4-(K)2-K-βA-OH [SPC RL], the p24 production was 0.441 in the data set on HIV-1 Hx10clone (Day 3 post-infection) and 0.463 in the data set with HIV-1 Hx10clone (Day 4 post-infection). The “Syncitia Formation” value with HIV-1 Hx10 clone (Day 2 post-infection) and in the data set with HIV-1 Hx10 clone (Day 3 post-infection) was “+/− (+/−=>95 % decrease)” each time.
